Laboratory results: BigSolDB 2.1

Cl.OC(CCCN1CCCCC1)(c1ccccc1)c1ccccc1
solubility (mole fraction) (in DMAc, 278.15 K): 0.00189
solubility (mole fraction) (in DMAc, 283.15 K): 0.00221
solubility (mole fraction) (in DMAc, 288.15 K): 0.00254
solubility (mole fraction) (in DMAc, 293.15 K): 0.00305
solubility (mole fraction) (in DMAc, 298.15 K): 0.00357
solubility (mole fraction) (in DMAc, 303.15 K): 0.00407
solubility (mole fraction) (in DMAc, 308.15 K): 0.00457
solubility (mole fraction) (in DMAc, 313.15 K): 0.00525
solubility (mole fraction) (in DMAc, 318.15 K): 0.00596
solubility (mole fraction) (in DMAc, 323.15 K): 0.00697
solubility (mole fraction) (in DMF, 278.15 K): 0.00285
solubility (mole fraction) (in DMF, 283.15 K): 0.00316
solubility (mole fraction) (in DMF, 288.15 K): 0.00357
solubility (mole fraction) (in DMF, 293.15 K): 0.00408
solubility (mole fraction) (in DMF, 298.15 K): 0.00466
solubility (mole fraction) (in DMF, 303.15 K): 0.00515
solubility (mole fraction) (in DMF, 308.15 K): 0.00615
solubility (mole fraction) (in DMF, 313.15 K): 0.00688
solubility (mole fraction) (in DMF, 318.15 K): 0.00811
solubility (mole fraction) (in DMF, 323.15 K): 0.00923
solubility (mole fraction) (in DMSO, 293.15 K): 0.0121
solubility (mole fraction) (in DMSO, 298.15 K): 0.0134
solubility (mole fraction) (in DMSO, 303.15 K): 0.0148
solubility (mole fraction) (in DMSO, 308.15 K): 0.0167
solubility (mole fraction) (in DMSO, 313.15 K): 0.019
solubility (mole fraction) (in DMSO, 318.15 K): 0.0213
solubility (mole fraction) (in DMSO, 323.15 K): 0.0242
solubility (mole fraction) (in NMP, 278.15 K): 0.00427
solubility (mole fraction) (in NMP, 283.15 K): 0.00492
solubility (mole fraction) (in NMP, 288.15 K): 0.0056
solubility (mole fraction) (in NMP, 293.15 K): 0.00616
solubility (mole fraction) (in NMP, 298.15 K): 0.00725
solubility (mole fraction) (in NMP, 303.15 K): 0.00826
solubility (mole fraction) (in NMP, 308.15 K): 0.00921
solubility (mole fraction) (in NMP, 313.15 K): 0.0104
solubility (mole fraction) (in NMP, 318.15 K): 0.012
solubility (mole fraction) (in NMP, 323.15 K): 0.0141
solubility (mole fraction) (in acetic acid, 293.15 K): 0.00434
solubility (mole fraction) (in acetic acid, 298.15 K): 0.00601
solubility (mole fraction) (in acetic acid, 303.15 K): 0.00965
solubility (mole fraction) (in acetic acid, 308.15 K): 0.016
solubility (mole fraction) (in acetic acid, 313.15 K): 0.0263
solubility (mole fraction) (in acetic acid, 318.15 K): 0.0428
solubility (mole fraction) (in acetic acid, 323.15 K): 0.0632
solubility (mole fraction) (in acetonitrile, 278.15 K): 0.000127
solubility (mole fraction) (in acetonitrile, 283.15 K): 0.00016
solubility (mole fraction) (in acetonitrile, 288.15 K): 0.000224
solubility (mole fraction) (in acetonitrile, 293.15 K): 0.000306
solubility (mole fraction) (in acetonitrile, 298.15 K): 0.000412
solubility (mole fraction) (in acetonitrile, 303.15 K): 0.000497
solubility (mole fraction) (in acetonitrile, 308.15 K): 0.000623
solubility (mole fraction) (in acetonitrile, 313.15 K): 0.000747
solubility (mole fraction) (in acetonitrile, 318.15 K): 0.000892
solubility (mole fraction) (in acetonitrile, 323.15 K): 0.00105
solubility (mole fraction) (in ethanol, 278.15 K): 0.00161
solubility (mole fraction) (in ethanol, 283.15 K): 0.00196
solubility (mole fraction) (in ethanol, 288.15 K): 0.00227
solubility (mole fraction) (in ethanol, 293.15 K): 0.00275
solubility (mole fraction) (in ethanol, 298.15 K): 0.00336
solubility (mole fraction) (in ethanol, 303.15 K): 0.00405
solubility (mole fraction) (in ethanol, 308.15 K): 0.00485
solubility (mole fraction) (in ethanol, 313.15 K): 0.00585
solubility (mole fraction) (in ethanol, 318.15 K): 0.00706
solubility (mole fraction) (in ethanol, 323.15 K): 0.00867
solubility (mole fraction) (in methanol, 278.15 K): 0.00929
solubility (mole fraction) (in methanol, 283.15 K): 0.0109
solubility (mole fraction) (in methanol, 288.15 K): 0.0127
solubility (mole fraction) (in methanol, 293.15 K): 0.0152
solubility (mole fraction) (in methanol, 298.15 K): 0.0177
solubility (mole fraction) (in methanol, 303.15 K): 0.0207
solubility (mole fraction) (in methanol, 308.15 K): 0.0245
solubility (mole fraction) (in methanol, 313.15 K): 0.0285
solubility (mole fraction) (in methanol, 318.15 K): 0.0337
solubility (mole fraction) (in methanol, 323.15 K): 0.0397
solubility (mole fraction) (in n-butanol, 278.15 K): 0.000548
solubility (mole fraction) (in n-butanol, 283.15 K): 0.000685
solubility (mole fraction) (in n-butanol, 288.15 K): 0.000907
solubility (mole fraction) (in n-butanol, 293.15 K): 0.00113
solubility (mole fraction) (in n-butanol, 298.15 K): 0.00137
solubility (mole fraction) (in n-butanol, 303.15 K): 0.00169
solubility (mole fraction) (in n-butanol, 308.15 K): 0.00206
solubility (mole fraction) (in n-butanol, 313.15 K): 0.00247
solubility (mole fraction) (in n-butanol, 318.15 K): 0.00304
solubility (mole fraction) (in n-butanol, 323.15 K): 0.00398
solubility (mole fraction) (in n-pentanol, 278.15 K): 0.000228
solubility (mole fraction) (in n-pentanol, 283.15 K): 0.000359
solubility (mole fraction) (in n-pentanol, 288.15 K): 0.000562
solubility (mole fraction) (in n-pentanol, 293.15 K): 0.00075
solubility (mole fraction) (in n-pentanol, 298.15 K): 0.000981
solubility (mole fraction) (in n-pentanol, 303.15 K): 0.00121
solubility (mole fraction) (in n-pentanol, 308.15 K): 0.00164
solubility (mole fraction) (in n-pentanol, 313.15 K): 0.00212
solubility (mole fraction) (in n-pentanol, 318.15 K): 0.00265
solubility (mole fraction) (in n-pentanol, 323.15 K): 0.00327
solubility (mole fraction) (in n-propanol, 278.15 K): 0.00115
solubility (mole fraction) (in n-propanol, 283.15 K): 0.00151
solubility (mole fraction) (in n-propanol, 288.15 K): 0.00199
solubility (mole fraction) (in n-propanol, 293.15 K): 0.0025
solubility (mole fraction) (in n-propanol, 298.15 K): 0.00255
solubility (mole fraction) (in n-propanol, 303.15 K): 0.00309
solubility (mole fraction) (in n-propanol, 308.15 K): 0.00364
solubility (mole fraction) (in n-propanol, 313.15 K): 0.00454
solubility (mole fraction) (in n-propanol, 318.15 K): 0.00575
solubility (mole fraction) (in n-propanol, 323.15 K): 0.00708
solubility (mole fraction) (in water, 278.15 K): 0.000935
solubility (mole fraction) (in water, 283.15 K): 0.001
solubility (mole fraction) (in water, 288.15 K): 0.00112
solubility (mole fraction) (in water, 293.15 K): 0.00125
solubility (mole fraction) (in water, 298.15 K): 0.00135
solubility (mole fraction) (in water, 303.15 K): 0.0015
solubility (mole fraction) (in water, 308.15 K): 0.00165
solubility (mole fraction) (in water, 313.15 K): 0.00173
solubility (mole fraction) (in water, 318.15 K): 0.00193
solubility (mole fraction) (in water, 323.15 K): 0.00216
